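Five compound concentrations were applied to cells in 96-well plates for 48 hours; endpoints were derived by simple linear interpolation of the resulting dose-response curve. At the GI50, growth is halved.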 Activity calls are given as the source filed them. No stated cut-off is given here; in the data, active = GI50 up to about 1.1 µM and inactive = higher.
Experiments:
Experiment in all cases: DTP human tumour cell line panel, 48 h
786-0 = tested on: 786-0
COLO 205 = tested on: COLO 205
DLD-1 = tested on: DLD-1
HCT-15 = tested on: HCT-15
HL-60 = tested on: HL-60
HOP-62 = tested on: HOP-62
HT-29 = tested on: HT-29
KM12 = tested on: KM12
Malme-3M = tested on: Malme-3M
NCI-H23 = tested on: NCI-H23
NCI-H522 = tested on: NCI-H522
OVCAR-5 = tested on: OVCAR-5
SF-539 = tested on: SF-539
SK-MEL-2 = tested on: SK-MEL-2
SK-OV-3 = tested on: SK-OV-3
SN12C = tested on: SN12C
SW-620 = tested on: SW-620
MDA-N = tested on: MDA-N
PC-3 = tested on: PC-3
SR = tested on: SR

In the case of CCC1(C(=O)OC)CCc2c(OC)ccc(OC)c2C1=O (configuration not stated), the GI50 (786-0) is reported as > 100 µM (inactive), the GI50 (COLO 205) is reported as > 100 µM (inactive) and the GI50 (DLD-1) is reported as > 100 µM (inactive). For the same molecule, the GI50 (HCT-15) was over 100 µM, the GI50 (HL-60) was > 100 µM (inactive) and the GI50 (HOP-62) was > 100 µM (inactive). For the same molecule, the GI50 (HT-29) was > 100 µM (inactive), the GI50 (KM12) was > 100 µM (inactive) and the GI50 (Malme-3M) was > 100 µM (inactive). The GI50 (NCI-H23) was > 100 µM (inactive), the GI50 (NCI-H522) was > 100 µM (inactive) and the GI50 (OVCAR-5) was > 100 µM (inactive). The GI50 (SF-539) was > 100 µM (inactive), the GI50 (SK-MEL-2) was > 100 µM (inactive) and the GI50 (SK-OV-3) was > 100 µM (inactive). For the same molecule, the GI50 (SN12C) was > 100 µM (inactive) and the GI50 (SW-620) was > 100 µM (inactive).
C/C(CCn1[nH]c(=O)ccc1=O)=N\NC(=O)C(N)=O was tested, and the GI50 (786-0) was > 100 µM (inactive), the GI50 (COLO 205) was > 100 µM (inactive) and the GI50 (DLD-1) was > 100 µM (inactive). For the same molecule, the GI50 (HCT-15) was over 100 µM, the GI50 (HL-60) was > 100 µM (inactive) and the GI50 (HOP-62) was > 100 µM (inactive). For the same molecule, the GI50 (HT-29) was > 100 µM (inactive), the GI50 (KM12) was > 100 µM (inactive) and the GI50 (Malme-3M) was > 100 µM (inactive). For the same molecule, the GI50 (NCI-H23) was > 100 µM (inactive), the GI50 (NCI-H522) was > 100 µM (inactive) and the GI50 (OVCAR-5) was > 100 µM (inactive). For the same molecule, the GI50 (SF-539) was > 100 µM (inactive), the GI50 (SK-MEL-2) was > 100 µM (inactive) and the GI50 (SN12C) was > 100 µM (inactive). For the same molecule, the GI50 (SW-620) was > 100 µM (inactive).
COc1cccc(/C(CC(O)(C(F)(F)F)C(F)(F)F)=N\N(C)C)c1 was tested, and the GI50 (786-0) was > 100 µM (inactive), the GI50 (COLO 205) was > 100 µM (inactive) and the GI50 (HCT-15) was over 100 µM. For the same molecule, the GI50 (HL-60) was > 100 µM (inactive), the GI50 (HOP-62) was > 100 µM (inactive) and the GI50 (HT-29) was > 100 µM (inactive). The GI50 (KM12) was > 100 µM (inactive), the GI50 (MDA-N) was > 100 µM (inactive) and the GI50 (Malme-3M) was > 100 µM (inactive). For the same molecule, the GI50 (NCI-H23) was > 100 µM (inactive), the GI50 (NCI-H522) was > 100 µM (inactive) and the GI50 (OVCAR-5) was > 100 µM (inactive). For the same molecule, the GI50 (PC-3) was > 100 µM (inactive), the GI50 (SF-539) was > 100 µM (inactive) and the GI50 (SK-MEL-2) was > 100 µM (inactive). The GI50 (SK-OV-3) was > 100 µM (inactive), the GI50 (SN12C) was > 100 µM (inactive) and the GI50 (SR) was > 100 µM (inactive). The GI50 (SW-620) was > 100 µM (inactive).
In the case of CCOC(=O)c1cn(Cc2ccccc2)c(=O)n1Cc1ccccc1, the GI50 (786-0) is reported as > 100 µM (inactive), the GI50 (COLO 205) is reported as > 100 µM (inactive) and the GI50 (DLD-1) is reported as > 100 µM (inactive). For the same molecule, the GI50 (HCT-15) was 80.2 µM, the GI50 (HL-60) was 6.93 µM (inactive) and the GI50 (HOP-62) was > 100 µM (inactive). The GI50 (HT-29) was > 100 µM (inactive), the GI50 (KM12) was > 100 µM (inactive) and the GI50 (Malme-3M) was > 100 µM (inactive). For the same molecule, the GI50 (NCI-H23) was > 100 µM (inactive), the GI50 (NCI-H522) was > 100 µM (inactive) and the GI50 (OVCAR-5) was > 100 µM (inactive). For the same molecule, the GI50 (SF-539) was > 100 µM (inactive), the GI50 (SK-MEL-2) was > 100 µM (inactive) and the GI50 (SK-OV-3) was > 100 µM (inactive). For the same molecule, the GI50 (SN12C) was > 100 µM (inactive) and the GI50 (SW-620) was > 100 µM (inactive).
Clc1ccccc1C1N2CCCCC2[C@@H]2c3[nH]c4ccccc4c3CCN12 (some centres not stated) was tested, and the GI50 (786-0) was 21.2 µM (inactive), the GI50 (COLO 205) was 19.3 µM (inactive) and the GI50 (DLD-1) was 18.9 µM (inactive). For the same molecule, the GI50 (HCT-15) was 16.2 µM, the GI50 (HL-60) was 19.5 µM (inactive) and the GI50 (HOP-62) was 29.9 µM (inactive). For the same molecule, the GI50 (HT-29) was 17.1 µM (inactive), the GI50 (Malme-3M) was 4.84 µM (inactive) and the GI50 (NCI-H23) was 23.6 µM (inactive). The GI50 (OVCAR-5) was 20.9 µM (inactive), the GI50 (SF-539) was 15.2 µM (inactive) and the GI50 (SK-MEL-2) was 16.7 µM (inactive). For the same molecule, the GI50 (SK-OV-3) was 21.6 µM (inactive), the GI50 (SN12C) was 16.7 µM (inactive) and the GI50 (SW-620) was 17.3 µM (inactive).
With CCC12CC[C@H](C#N)N3CCc4c(n(c5ccccc45)C(=O)C1)C32 (some centres not stated) the GI50 (786-0) was 16.9 µM (inactive), the GI50 (COLO 205) was 19.1 µM (inactive) and the GI50 (DLD-1) was 18.3 µM (inactive). For the same molecule, the GI50 (HCT-15) was 5.2 µM, the GI50 (HOP-62) was 22.9 µM (inactive) and the GI50 (HT-29) was 14.2 µM (inactive). For the same molecule, the GI50 (KM12) was 8.17 µM (inactive), the GI50 (Malme-3M) was 4.02 µM (inactive) and the GI50 (NCI-H23) was 15.4 µM (inactive). The GI50 (OVCAR-5) was 21.5 µM (inactive), the GI50 (SF-539) was 17.5 µM (inactive) and the GI50 (SK-MEL-2) was 14.1 µM (inactive). For the same molecule, the GI50 (SK-OV-3) was 35.3 µM (inactive), the GI50 (SN12C) was 19.4 µM (inactive) and the GI50 (SW-620) was 14.9 µM (inactive).
O=C(CBr)NCCc1c[nH]c2ccccc12 was tested, and the GI50 (786-0) was 1.4 µM (inactive), the GI50 (COLO 205) was 1.65 µM (inactive) and the GI50 (HCT-15) was 1.76 µM. The GI50 (HL-60) was 1.7 µM (inactive), the GI50 (HOP-62) was 1.94 µM (inactive) and the GI50 (HT-29) was 1.83 µM (inactive). For the same molecule, the GI50 (KM12) was 1.93 µM (inactive), the GI50 (MDA-N) was 2.02 µM (inactive) and the GI50 (Malme-3M) was 2.94 µM (inactive). For the same molecule, the GI50 (NCI-H23) was 1.46 µM (inactive), the GI50 (NCI-H522) was 0.229 µM (active) and the GI50 (OVCAR-5) was 1.87 µM (inactive). For the same molecule, the GI50 (PC-3) was 1.99 µM (inactive), the GI50 (SF-539) was 1.81 µM (inactive) and the GI50 (SK-MEL-2) was 1.92 µM (inactive). The GI50 (SK-OV-3) was 2.67 µM (inactive), the GI50 (SN12C) was 1.45 µM (inactive) and the GI50 (SR) was 0.344 µM (active). The GI50 (SW-620) was 2.03 µM (inactive).
For C[C@]12CC[C@H](O)C[C@H]1CC[C@@H]1[C@@H]2CC[C@]2(C)[C@@H](C3=CC(=O)OC3)[C@@H](O)C[C@]12O [GITOXIGENIN], the GI50 (786-0) was 0.995 µM (active), the GI50 (COLO 205) was 2.61 µM (inactive) and the GI50 (HCT-15) was 2.58 µM. The GI50 (HL-60) was 1.62 µM (inactive), the GI50 (HOP-62) was 1.11 µM (active) and the GI50 (HT-29) was 3.27 µM (inactive). The GI50 (KM12) was 4.85 µM (inactive), the GI50 (MDA-N) was 2.42 µM (inactive) and the GI50 (Malme-3M) was 1.77 µM (inactive). The GI50 (NCI-H23) was 0.682 µM (active), the GI50 (NCI-H522) was 0.435 µM (active) and the GI50 (OVCAR-5) was 2.81 µM (inactive). The GI50 (PC-3) was 1.44 µM (inactive), the GI50 (SF-539) was 0.849 µM (active) and the GI50 (SK-MEL-2) was 2.17 µM (inactive). For the same molecule, the GI50 (SK-OV-3) was 2.71 µM (inactive), the GI50 (SN12C) was 0.566 µM (active) and the GI50 (SR) was 0.977 µM (active). For the same molecule, the GI50 (SW-620) was 3.18 µM (inactive).
